In the supplement of paper PMC11061612:

Key:
[1] = system: FU-OV-1 (Ovarian Carcinoma); test: combination Emax (second highest fraction inhibited in the dose matrix, 72 h); higher = more inhibition; extreme values may be limits of the assay
In short: (§1)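 After 24 hours at 37°C and 5% CO2 in 1536-well plates, cells in DMEM/F12 or RPMI plus 10% FBS received two-drug dose matrices for 72 hours. Viability came from CellTiter-Glo 2.0 luminescence and was scaled as inhibition, anchored at 0 by vehicle wells and at 1 by blank wells. Combination Emax is taken as the second-highest inhibition in the matrix, and Bliss excess as the observed combination effect less EA + EB − EA·EB, with EA and EB the single-agent effects.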

[2] = system: CAL-39 (Other Solid Carcinomas); test: Bliss excess, mean over the matrix (fraction); higher = more synergy
In short: as §1

[3] = system: D-283MED (Other Solid Carcinomas); test: as above
In short: as §1

[4] = system: HCT-116 (Colorectal Carcinoma); test: as above
In short: as §1

[5] = system: SK-UT-1 (Other Solid Carcinomas); test: as above
In short: as §1

[6] = system: U-118-MG (Low Grade Glioma); test: as above
In short: as §1

[7] = system: NCI-H1688 (Small Cell Lung Carcinoma); test: as above
In short: as §1

[8] = system: WSU-DLCL2 (B-Cell Non-Hodgkin's Lymphoma); test: as above
In short: as §1

[9] = system: EKVX (Non-Small Cell Lung Carcinoma); test: as above
In short: as §1

[10] = system: Saos-2 (Osteosarcoma); test: as above
In short: as §1

[11] = system: SLVL (B-Cell Non-Hodgkin's Lymphoma); test: as above
In short: as §1

[12] = system: FU-OV-1 (Ovarian Carcinoma); test: as above
In short: as §1

[13] = system: SW48 (Colorectal Carcinoma); test: as above
In short: as §1

[14] = system: P31-FUJ (Acute Myeloid Leukemia); test: as above
In short: as §1
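For Bliss excess, mean over the matrix in this document: after 72 h of two-drug dosing.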

Compound	combination Emax [1]	Bliss excess [2]	Bliss excess [3]	Bliss excess [4]	Bliss excess [5]	Bliss excess [6]	Bliss excess [7]	Bliss excess [8]	Bliss excess [9]	Bliss excess [10]	Bliss excess [11]	Bliss excess [12]	Bliss excess [13]	Bliss excess [14]
CC1(C)CCC(CN2CCN(c3ccc(C(=O)NS(=O)(=O)c4ccc(NCC5CCOCC5)c([N+](=O)[O-])c4)c(Oc4cnc5[nH]ccc5c4)c3)CC2)=C(c2ccc(Cl)cc2)C1 [Venetoclax] + C=CCn1c(=O)c2cnc(Nc3ccc(N4CCN(C)CC4)cc3)nc2n1-c1cccc(C(C)(C)O)n1 [AZD1775] (first compound max 1 µM, partner max 1 µM)	0.612	-0.0308	0.0257	-0.0765	0.0562	-0.0704	-0.0067	0.0465	-0.075	0.0339	0.0249	-0.0599	0.0294	0.0685
CC1(C)CCC(CN2CCN(c3ccc(C(=O)NS(=O)(=O)c4ccc(NCC5CCOCC5)c([N+](=O)[O-])c4)c(Oc4cnc5[nH]ccc5c4)c3)CC2)=C(c2ccc(Cl)cc2)C1 [Venetoclax] + CCN(CCO)CCCOc1ccc2c(Nc3cc(CC(=O)Nc4cccc(F)c4)[nH]n3)ncnc2c1 [AZD2811] (first compound max 1 µM, 7x7, partner max 1 µM)	0.238	-0.0113	0.0579	0.008	0.0491	-0.0032	0.0436	0.301	-0.044	0.0727	0.0685	-0.0705	-0.0071	-0.0512
CC1(C)CCC(CN2CCN(c3ccc(C(=O)NS(=O)(=O)c4ccc(NCC5CCOCC5)c([N+](=O)[O-])c4)c(Oc4cnc5[nH]ccc5c4)c3)CC2)=C(c2ccc(Cl)cc2)C1 [Venetoclax] + CN(C)CCCOc1ccc(-c2ccc3ncc4c(c3c2)n(C2CCOCC2)c(=O)n4C)cn1 [AZD0156] (first compound max 1 µM, 7x7, partner max 1 µM)	0.291	-0.0214	0.0189	-0.0286	-0.013	-0.0076	0.0209	0.0518	-0.0365	-0.0364	0.058	-0.0223	-0.0216	-0.0179
CC1(C)CCC(CN2CCN(c3ccc(C(=O)NS(=O)(=O)c4ccc(NCC5CCOCC5)c([N+](=O)[O-])c4)c(Oc4cnc5[nH]ccc5c4)c3)CC2)=C(c2ccc(Cl)cc2)C1 [Venetoclax] + COc1cc(Nc2ncc3c(n2)-c2ccc(Cl)cc2C(c2c(F)cccc2OC)=NC3)ccc1C(=O)O [Alisertib] (first compound max 1 µM, 7x7, partner max 10 µM)	0.665	-0.0989	0.0345	-0.0043	0.0971	-0.013	0.0566	0.238	-0.0457	0.047	0.0761	-0.0614	-0.0083	0.0678
CC1(C)CCC(CN2CCN(c3ccc(C(=O)NS(=O)(=O)c4ccc(NCC5CCOCC5)c([N+](=O)[O-])c4)c(Oc4cnc5[nH]ccc5c4)c3)CC2)=C(c2ccc(Cl)cc2)C1 [Venetoclax] + C[C@@H]1COCCN1C2=NC(=NC(=C2)C3(CC3)[S@](=N)(=O)C)C4=C5C=CNC5=NC=C4 [AZD6738] (first compound max 1 µM, 7x7, partner max 10 µM)	0.485	-0.026	-0.0345	-0.0703	-0.0299	-0.0106	0.0294	0.0423	-0.054	-0.0316	-0.0162	-0.0444	-0.0398	0.0498
CC1(C)CCC(CN2CCN(c3ccc(C(=O)NS(=O)(=O)c4ccc(NCC5CCOCC5)c([N+](=O)[O-])c4)c(Oc4cnc5[nH]ccc5c4)c3)CC2)=C(c2ccc(Cl)cc2)C1 [Venetoclax] + C[C@@H](Nc1cc(F)cc(F)c1)c1cc(C(=O)N(C)C)cc2c(=O)cc(N3CCOCC3)oc12 [AZD8186] (first compound max 1 µM, 7x7, partner max 3 µM)	0.412	-0.106	-0.0149	-0.0421	-0.0141	-0.0383	-0.0385	0.0951	0.0566	0	0.0395	-0.0594	-0.0278	0.0178
CC1(C)CCC(CN2CCN(c3ccc(C(=O)NS(=O)(=O)c4ccc(NCC5CCOCC5)c([N+](=O)[O-])c4)c(Oc4cnc5[nH]ccc5c4)c3)CC2)=C(c2ccc(Cl)cc2)C1 [Venetoclax] + Cc1cc2ncnn2cc1Nc1ncc2c(n1)n(C1CCOCC1)c(=O)n2C [AZD7648] (first compound max 1 µM, 7x7, partner max 10 µM)	0.358	-0.104	-0.051	0.0048	-0.0119	-0.0148	0.0457	0.0706	-0.0788	-0.0075	0.0013	-0.036	0.0327	-0.015
CC1(C)CCC(CN2CCN(c3ccc(C(=O)NS(=O)(=O)c4ccc(NCC5CCOCC5)c([N+](=O)[O-])c4)c(Oc4cnc5[nH]ccc5c4)c3)CC2)=C(c2ccc(Cl)cc2)C1 [Venetoclax] + Cn1cnc2c(F)c(Nc3ccc(Br)cc3Cl)c(C(=O)NOCCO)cc21 [Selumetinib] (first compound max 1 µM, 7x7, partner max 3 µM)	0.445	0.0138	0.009	-0.0255	0.0043	-0.0336	-0.0333	0.0196	-0.0732	-0.0057	0.0299	-0.0929	0.0113	-0.0968
